Reference: EP4818168A1, “FUSED RING COMPOUND, PHARMACEUTICAL COMPOSITION THEREOF AND USE THEREOF” (priority 2023, dated 2025)

biological target: T1, AURKA (Homo sapiens, UniProt O14965); assay: not given; assay type: cell-based; details: not given
T1 construct: endogenous in cells; host or cells: Jurkat cells
T1 sequence (O14965 1-403): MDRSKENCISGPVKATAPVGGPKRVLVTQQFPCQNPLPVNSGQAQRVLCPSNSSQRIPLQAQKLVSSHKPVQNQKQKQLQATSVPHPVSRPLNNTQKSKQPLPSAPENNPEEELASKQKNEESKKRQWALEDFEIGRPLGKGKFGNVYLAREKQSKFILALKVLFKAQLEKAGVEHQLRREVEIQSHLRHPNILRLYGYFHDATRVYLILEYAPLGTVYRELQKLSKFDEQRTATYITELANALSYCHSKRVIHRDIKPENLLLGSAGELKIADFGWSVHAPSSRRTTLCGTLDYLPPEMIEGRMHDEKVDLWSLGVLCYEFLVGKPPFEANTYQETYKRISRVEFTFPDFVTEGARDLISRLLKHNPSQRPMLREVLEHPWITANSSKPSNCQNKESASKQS
Outline: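 Jurkat cells seeded at 1×10^6 cells/500 µL and treated with compound; lysates run on SDS-PAGE, blotted to nitrocellulose and probed overnight at 4°C for AURKA. Chemiluminescent or fluorescent band intensity fitted to a curve to give DC50 for protein degradation.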

Structure (SMILES)	Percentage of AURKA Degradation Induced by 100 nM Compound in Jurkat Cells	Percentage of AURKA Degradation Induced by 1 µM Compound in Jurkat Cells
O=C1CCN(c2ccc(N3CCN(CCNC(=O)c4ccc(Nc5ncc6c(n5)-c5ccc(Cl)cc5C(c5c(F)cccc5F)=NC6)cc4)CC3=O)nc2)C(=O)N1 [Compound A64]	+++ (key: +: Degradation ≤ 30%; ++: 30% < Degradation ≤ 70%; +++: Degradation > 70%)	++ (key: +: Degradation ≤ 30%; ++: 30% < Degradation ≤ 70%; +++: Degradation > 70%)
O=C1CCN(c2ccc(N3CCC4(CC3)CN(C3CCN(c5cccc(Nc6ncc7c(n6)-c6ccc(Cl)cc6C(c6c(F)cccc6F)=NC7)c5)CC3)CCO4)nc2)C(=O)N1 [Compound A347]	+++ (key: +: Degradation ≤ 30%; ++: 30% < Degradation ≤ 70%; +++: Degradation > 70%)	+++ (key: +: Degradation ≤ 30%; ++: 30% < Degradation ≤ 70%; +++: Degradation > 70%)

same assay, conditions: 100 nM compound, Jurkat cells, 24 h, Table 1

Structure (SMILES)	Percentage of AURKA Degradation Induced by 100 nM Compound in Jurkat Cells
COc1cc(Nc2ncc3c(n2)-c2ccc(Cl)cc2C(c2c(F)cccc2OC)=NC3)ccc1C(=O)NCCC#Cc1ccc(N2CCC(=O)NC2=O)cc1 [Compound A26]	+ (Degradation ≤ 30%)
COc1cccc(F)c1C1=NCc2cnc(Nc3ccc(C(=O)NCCN4CCN(c5ccc(N6CCC(=O)NC6=O)cn5)C(=O)C4)cc3)nc2-c2ccc(Cl)cc21 [Compound A65]	+++ (Degradation > 70%)
COc1cc(Nc2ncc3c(n2)-c2ccc(Cl)cc2C(c2c(F)cccc2OC)=NC3)ccc1C(=O)N(C)C1CC2(CCN(c3ccc(N4CCC(=O)NC4=O)cc3)CC2)C1 [Compound A40]	++ (30% < Degradation ≤ 70%)
COc1cc(Nc2ncc3c(n2)-c2ccc(Cl)cc2C(c2c(F)cccc2OC)=NC3)ccc1C(=O)NC1CC2(CCN(c3ccc(N4CCC(=O)NC4=O)cn3)CC2)C1 [Compound A54]	+++ (Degradation > 70%)
O=C1CCN(c2ccc(N3CCN(CCNC(=O)c4ccc(Nc5ncc6c(n5)-c5ccc(Cl)cc5C(c5c(F)cccc5F)=NC6)cc4)CC34CC4)nc2)C(=O)N1 [Compound A66]	+ (Degradation ≤ 30%)
O=C1CCN(c2ccc(N3CCC4(CC3)CC(NC(=O)c3ccc(Nc5ncc6c(n5)-c5ccc(Cl)cc5C(c5c(F)cccc5F)=NC6)cc3)C4)cc2)C(=O)N1 [Compound A37]	+++ (Degradation > 70%)
O=C1CCN(c2ccc(N3CC4(CCN(C(=O)c5ccc(Nc6ncc7c(n6)-c6ccc(Cl)cc6C(c6c(F)cccc6F)=NC7)cc5)C4)C3)cc2)C(=O)N1 [Compound A43]	+ (Degradation ≤ 30%)
O=C1CCN(c2cccc(N3CC(CN4CC(NC(=O)c5ccc(Nc6ncc7c(n6)-c6ccc(Cl)cc6C(c6c(F)cccc6F)=NC7)cc5)C4)C3)c2)C(=O)N1 [Compound A72]	+++ (Degradation > 70%)
COc1cc(Nc2ncc3c(n2)-c2ccc(Cl)cc2C(c2c(F)cccc2OC)=NC3)ccc1C(=O)N(C)CCCCCNc1cccc2c1C(=O)N(C1CCC(=O)NC1=O)C2=O (stereo not drawn) [Compound A2]	++ (30% < Degradation ≤ 70%)

same assay, conditions: 1 µM compound, Jurkat cells, 24 h, Table 1

Structure (SMILES)	Percentage of AURKA Degradation Induced by 1 µM Compound in Jurkat Cells
COc1cc(Nc2ncc3c(n2)-c2ccc(Cl)cc2C(c2c(F)cccc2OC)=NC3)ccc1C(=O)NCCC#Cc1ccc(N2CCC(=O)NC2=O)cc1 [Compound A26]	+ (Degradation ≤ 30%)
COc1cccc(F)c1C1=NCc2cnc(Nc3ccc(C(=O)NCCN4CCN(c5ccc(N6CCC(=O)NC6=O)cn5)C(=O)C4)cc3)nc2-c2ccc(Cl)cc21 [Compound A65]	++ (30% < Degradation ≤ 70%)
COc1cc(Nc2ncc3c(n2)-c2ccc(Cl)cc2C(c2c(F)cccc2OC)=NC3)ccc1C(=O)N(C)C1CC2(CCN(c3ccc(N4CCC(=O)NC4=O)cc3)CC2)C1 [Compound A40]	+ (Degradation ≤ 30%)
COc1cc(Nc2ncc3c(n2)-c2ccc(Cl)cc2C(c2c(F)cccc2OC)=NC3)ccc1C(=O)NC1CC2(CCN(c3ccc(N4CCC(=O)NC4=O)cn3)CC2)C1 [Compound A54]	+++ (Degradation > 70%)
O=C1CCN(c2ccc(N3CCN(CCNC(=O)c4ccc(Nc5ncc6c(n5)-c5ccc(Cl)cc5C(c5c(F)cccc5F)=NC6)cc4)CC34CC4)nc2)C(=O)N1 [Compound A66]	+ (Degradation ≤ 30%)
O=C1CCN(c2ccc(N3CCC4(CC3)CC(NC(=O)c3ccc(Nc5ncc6c(n5)-c5ccc(Cl)cc5C(c5c(F)cccc5F)=NC6)cc3)C4)cc2)C(=O)N1 [Compound A37]	+++ (Degradation > 70%)
O=C1CCN(c2ccc(N3CC4(CCN(C(=O)c5ccc(Nc6ncc7c(n6)-c6ccc(Cl)cc6C(c6c(F)cccc6F)=NC7)cc5)C4)C3)cc2)C(=O)N1 [Compound A43]	+ (Degradation ≤ 30%)
O=C1CCN(c2cccc(N3CC(CN4CC(NC(=O)c5ccc(Nc6ncc7c(n6)-c6ccc(Cl)cc6C(c6c(F)cccc6F)=NC7)cc5)C4)C3)c2)C(=O)N1 [Compound A72]	+++ (Degradation > 70%)
COc1cc(Nc2ncc3c(n2)-c2ccc(Cl)cc2C(c2c(F)cccc2OC)=NC3)ccc1C(=O)N(C)CCCCCNc1cccc2c1C(=O)N(C1CCC(=O)NC1=O)C2=O (stereo not drawn) [Compound A2]	++ (30% < Degradation ≤ 70%)

system: HCC1806 cells; assay: CTG assay of compound inhibition on cell viability (HCC1806 cells); assay type: cell-based; details: Homo sapiens, 144 h; HCC1806 cells, 6 days, CellTiter-Glo; read-out: IC50 in HCC1806 Cells
Protocol: CellTiter-Glo (CTG) is a rapid cell viability test method based on ATP detection. […] Adenosine triphosphate (ATP) participates in various enzymatic reactions in organisms and is an indicator of living cell metabolism. Its content directly reflects the number of living cells and cell status. During the experiment, equal volume of CTG reagent is added to the cultured cells to measure the luminescence value. The chemiluminescent signal value is proportional to the amount of ATP, thus reflecting the number of viable cells. Therefore, cell viability can be obtained by detecting the ATP content. Compounds that affect cell viability will inhibit cell viability in a concentration-dependent manner, allowing a curve to be fitted to obtain the IC50 value.
The experimental procedure is as follows: • 11. Place the cell suspension in a 15 mL centrifuge tube, centrifuge at 1000 rpm for 5 min at room temperature, discard the supernatant, and collect the cell pellet. • 12. Resuspend the cell pellet with preheated complete cell culture medium (RPMI1640+10%FBS+1%PS), and use a Countess® automated cell counter to detect cell viability and density. The cell viability must be above 90%. • 13. […] Transfer the compound solution to a 96-well plate seeded with cells (final concentration of DMSO 0.1%), and place in a cell incubator at 37°C, 5% CO2 for 6 days. • 15. […] Protect from light during the whole process. Perform optical signal readings using a SpectraMax i3x reader. • 16. Data analysis: Remaining activity (%) = 100% * (1 - ((LumDMSO - Lummedium) - Lumsample) / (LumDMSO - LumPBS/medium)). Use GraphPad Prism 9.0 software to draw an S-shaped dose-survival rate curve and calculate the IC50 value using a nonlinear regression model.

Structure (SMILES)	IC50 [µM]
COc1cc(Nc2ncc3c(n2)-c2ccc(Cl)cc2C(c2c(F)cccc2OC)=NC3)ccc1C(=O)N(C)CCCCCNc1cccc2c1C(=O)N(C1CCC(=O)NC1=O)C2=O (stereo not drawn) [Compound A2]	< 1

same assay, conditions: Homo sapiens, HCC1806, 144 h, read-out: IC50 in HCC1806 Cells

Structure (SMILES)	IC50 [µM]
COc1cc(Nc2ncc3c(n2)-c2ccc(Cl)cc2C(c2c(F)cccc2OC)=NC3)ccc1C(=O)NCCC#Cc1ccc(N2CCC(=O)NC2=O)cc1 [Compound A26]	< 1
COc1cccc(F)c1C1=NCc2cnc(Nc3ccc(C(=O)NCCN4CCN(c5ccc(N6CCC(=O)NC6=O)cn5)C(=O)C4)cc3)nc2-c2ccc(Cl)cc21 [Compound A65]	< 1
COc1cc(Nc2ncc3c(n2)-c2ccc(Cl)cc2C(c2c(F)cccc2OC)=NC3)ccc1C(=O)N(C)C1CC2(CCN(c3ccc(N4CCC(=O)NC4=O)cc3)CC2)C1 [Compound A40]	< 1
COc1cc(Nc2ncc3c(n2)-c2ccc(Cl)cc2C(c2c(F)cccc2OC)=NC3)ccc1C(=O)NC1CC2(CCN(c3ccc(N4CCC(=O)NC4=O)cn3)CC2)C1 [Compound A54]	< 1
O=C1CCN(c2ccc(N3CCN(CCNC(=O)c4ccc(Nc5ncc6c(n5)-c5ccc(Cl)cc5C(c5c(F)cccc5F)=NC6)cc4)CC34CC4)nc2)C(=O)N1 [Compound A66]	< 1
O=C1CCN(c2ccc(N3CCC4(CC3)CC(NC(=O)c3ccc(Nc5ncc6c(n5)-c5ccc(Cl)cc5C(c5c(F)cccc5F)=NC6)cc3)C4)cc2)C(=O)N1 [Compound A37]	< 1
O=C1CCN(c2ccc(N3CC4(CCN(C(=O)c5ccc(Nc6ncc7c(n6)-c6ccc(Cl)cc6C(c6c(F)cccc6F)=NC7)cc5)C4)C3)cc2)C(=O)N1 [Compound A43]	> 10
O=C1CCN(c2cccc(N3CC(CN4CC(NC(=O)c5ccc(Nc6ncc7c(n6)-c6ccc(Cl)cc6C(c6c(F)cccc6F)=NC7)cc5)C4)C3)c2)C(=O)N1 [Compound A72]	< 1
O=C1CCN(c2ccc(N3CCN(CCNC(=O)c4ccc(Nc5ncc6c(n5)-c5ccc(Cl)cc5C(c5c(F)cccc5F)=NC6)cc4)CC3=O)nc2)C(=O)N1 [Compound A64]	< 1

system: H82 cells; assay: cells; assay type: cell-based; details: Homo sapiens, NCI-H82, read-out: IC50 in H82 Cells
Outline: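 H82 cells in RPMI1640 + 10% FBS exposed to compound (0.1% DMSO final) for 6 days at 37 °C, 5% CO2. Viability read by CellTiter-Glo ATP luminescence, normalised to DMSO and medium controls; IC50 from nonlinear regression of the dose–survival curve.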

Structure (SMILES)	IC50 [µM]
O=C1CCN(c2ccc(N3CCC4(CC3)CN(C3CCN(c5cccc(Nc6ncc7c(n6)-c6ccc(Cl)cc6C(c6c(F)cccc6F)=NC7)c5)CC3)CCO4)nc2)C(=O)N1 [Compound A347]	< 1
